# Reference: patent US10538554B2, “Peptides and uses therefor as antiviral agents” (priority 2015, dated 2020)
# Like-named read-outs stand apart in the source and are kept apart here. Bridge positions count the residues as written; N and C are the ends. Square brackets hold non-standard residues; d marks the D form. Peptide text beside a SMILES is read from it.
# Key:
# H9N2 A/Iran/16/2000 = settings: 48 h
# [1] = tested on: H1N1 A1/Malaysia/302/1954; settings: A1/Malaysia/302/1954, 48 h
# H3N8 A/Miami/2/63 = settings: A/Miami/2/63, 48 h
# H3N2 A/HK/8/1968 = settings: A/HK/8/1968, 48 h
SMILES,% inhibition H9N2 (H9N2 A/Iran/16/2000; 500 μM),% inhibition H1N1 ([1]; 500 μM),% inhibition H3N8 (H3N8 A/Miami/2/63; 500 μM),% inhibition H3N2 (H3N2 A/HK/8/1968; 500 μM),% inhibition H9N2 (H9N2 A/Iran/16/2000; 50 μM),% inhibition H1N1 ([1]; 50 μM),% inhibition H3N8 (H3N8 A/Miami/2/63; 50 μM),% inhibition H3N2 (H3N2 A/HK/8/1968; 50 μM)
"CC(C)[C@H]1NC(=O)[C@@H](Cc2ccccc2)NC(=O)[C@@H](CCCNC(=N)N)NC(=O)[C@@H](CO)NC(=O)[C@@H](CCCCN)NC(=O)[C@@H]([C@H](C)O)NC(=O)[C@H](N)CSSC[C@H](C(=O)O)NC(=O)[C@@H](CC(N)=O)NC1=O [PSP 18, H-ctksrfvnc-OH] (H-[dC][dT][dK][dS][dR][dF][dV][dN][dC]-OH; disulfide 1-9)",45.5%,51.9%,78.4%,70.4%,,,,
"CC[C@@H](C)[C@H]1NC(=O)[C@@H](Cc2ccccc2)NC(=O)[C@@H](CCCNC(=N)N)NC(=O)[C@@H](CCC(=O)O)NC(=O)[C@@H](Cc2c[nH]c3ccccc23)NC(=O)[C@@H]([C@H](C)O)NC(=O)[C@H](NC(=O)[C@H](CCCCN)NC(=O)[C@H](CCCCN)NC(=O)[C@H](CCCNC(=N)N)NC(=O)[C@@H](N)CCCNC(=N)N)CSSC[C@H](C(=O)O)NC(=O)[C@@H](CC(N)=O)NC1=O [PSP III B4, H-RRKKctwerfinc-OH] (H-RRKK[dC][dT][dW][dE][dR][dF][dI][dN][dC]-OH; disulfide 5-13)",,,,,86%,81%,91%,100%
"C[C@H](O)[C@H]1NC(=O)[C@H](N)CSSC[C@H](C(=O)O)NC(=O)[C@@H](CC(N)=O)NC(=O)[C@@H](CCC(=O)O)NC(=O)[C@@H](Cc2ccccc2)NC(=O)[C@@H](CCCNC(=N)N)NC(=O)[C@@H](CO)NC(=O)[C@@H](CCCCN)NC1=O [PSP 4, H-ctksrfenc-OH] (H-[dC][dT][dK][dS][dR][dF][dE][dN][dC]-OH; disulfide 1-9)",,52.9%,64%,22.7%,,,,
"C[C@H](O)[C@H]1NC(=O)[C@H](N)CSSC[C@H](C(=O)O)NC(=O)[C@@H](CC(N)=O)NC(=O)[C@@H](CS)NC(=O)[C@@H](Cc2ccccc2)NC(=O)[C@@H](CCCNC(=N)N)NC(=O)[C@@H](CO)NC(=O)[C@@H](CCCCN)NC1=O [PSP 2, H-ctksrfcnc-OH] (H-[dC][dT][dK][dS][dR][dF][dC][dN][dC]-OH; disulfide 1-9)",,67.6%,65%,18.5%,,,,
"C[C@H](O)[C@H]1NC(=O)[C@H](N)CSSC[C@H](C(=O)O)NC(=O)[C@@H](CC(N)=O)NC(=O)[C@@H](Cc2c[nH]c3ccccc23)NC(=O)[C@@H](Cc2ccccc2)NC(=O)[C@@H](CCCNC(=N)N)NC(=O)[C@@H](CO)NC(=O)[C@@H](CCCCN)NC1=O [PSP 19, H-ctksrfwnc-OH] (H-[dC][dT][dK][dS][dR][dF][dW][dN][dC]-OH; disulfide 1-9)",,28.8%,78.4%,92.6%,,,,
"C[C@H](O)[C@H]1NC(=O)[C@H](N)CSSC[C@H](C(=O)O)NC(=O)[C@@H](CC(N)=O)NC(=O)[C@@H](Cc2ccccc2)NC(=O)[C@@H](Cc2ccccc2)NC(=O)[C@@H](CCCNC(=N)N)NC(=O)[C@@H](CO)NC(=O)[C@@H](CCCCN)NC1=O [PSP 5, H-ctksrffnc-OH] (H-[dC][dT][dK][dS][dR][dF][dF][dN][dC]-OH; disulfide 1-9)",,47.1%,77.3%,45.5%,,,,
"C[C@H](O)[C@H]1NC(=O)[C@H](N)CSSC[C@H](C(=O)O)NC(=O)[C@@H](CC(N)=O)NC(=O)[C@@H](CCCNC(=N)N)NC(=O)[C@@H](Cc2ccccc2)NC(=O)[C@@H](CCCNC(=N)N)NC(=O)[C@@H](CO)NC(=O)[C@@H](CCCCN)NC1=O [PSP 15, H-ctksrfrnc-OH] (H-[dC][dT][dK][dS][dR][dF][dR][dN][dC]-OH; disulfide 1-9)",,11.5%,61.9%,3.7%,,,,
